Experimental data taken from ChEMBL document CHEMBL1134976, “SB-656104-A: a novel 5-HT(7) receptor antagonist with improved in vivo properties” (Bioorg Med Chem Lett, 2002).

How the values were obtained:
[1] = target: T1, Alpha-1B adrenergic receptor (Homo sapiens, UniProt P35368); assay: Binding affinity towards Alpha-1B adrenergic receptor
T1 sequence (P35368 whole entry): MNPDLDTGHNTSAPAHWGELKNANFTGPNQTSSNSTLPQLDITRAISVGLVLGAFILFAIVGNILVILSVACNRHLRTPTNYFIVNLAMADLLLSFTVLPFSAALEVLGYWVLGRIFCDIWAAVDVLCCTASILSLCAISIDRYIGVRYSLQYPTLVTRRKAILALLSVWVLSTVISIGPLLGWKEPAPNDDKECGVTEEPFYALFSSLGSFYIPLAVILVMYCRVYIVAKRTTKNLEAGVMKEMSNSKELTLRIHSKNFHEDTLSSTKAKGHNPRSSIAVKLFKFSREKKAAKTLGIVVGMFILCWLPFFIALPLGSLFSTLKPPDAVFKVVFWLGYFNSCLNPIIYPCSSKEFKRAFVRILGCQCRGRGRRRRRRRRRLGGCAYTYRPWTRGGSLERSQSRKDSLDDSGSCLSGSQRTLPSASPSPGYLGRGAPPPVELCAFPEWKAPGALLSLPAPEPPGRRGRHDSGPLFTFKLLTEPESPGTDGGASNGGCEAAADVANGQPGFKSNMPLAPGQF

[2] = target: T2, 5-hydroxytryptamine receptor 7 (Homo sapiens, UniProt P34969); assay: Binding affinity for human cloned 5-hydroxytryptamine 7 receptor in HEK 293 using [3H]5-CT as a radioligand; format: cell-based, HEK293
T2 sequence (P34969 whole entry): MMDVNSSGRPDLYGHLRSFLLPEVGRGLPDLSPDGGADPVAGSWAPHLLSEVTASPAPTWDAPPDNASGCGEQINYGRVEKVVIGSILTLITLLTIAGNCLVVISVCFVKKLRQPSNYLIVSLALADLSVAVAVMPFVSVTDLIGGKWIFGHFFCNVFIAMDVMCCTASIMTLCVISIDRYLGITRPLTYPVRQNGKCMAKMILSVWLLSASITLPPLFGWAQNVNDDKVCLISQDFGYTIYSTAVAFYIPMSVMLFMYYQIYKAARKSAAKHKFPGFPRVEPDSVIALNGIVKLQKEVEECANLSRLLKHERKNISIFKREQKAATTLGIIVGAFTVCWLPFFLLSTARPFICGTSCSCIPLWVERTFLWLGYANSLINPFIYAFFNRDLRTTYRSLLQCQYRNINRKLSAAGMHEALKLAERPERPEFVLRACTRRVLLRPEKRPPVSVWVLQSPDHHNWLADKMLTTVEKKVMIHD

[3] = Compound was tested for the lower blood clearance in rat; format: ADME, organism-based; conditions: read-out: CLb
[4] = Half life was determined; format: ADME, organism-based; conditions: rat, in vivo
Cavia porcellus [5] = assay: Effective dose to antagonise 5-CT induced hypothermia in guinea pig at 1 hour after intraperitoneal administration; conditions: ip
[6] = Steady state brain :blood ratio was determined; format: ADME, organism-based; conditions: rat, brain and blood
[7] = target: T2, 5-hydroxytryptamine receptor 7; assay: Compound was tested for its binding affinity in 5-hydroxytryptamine 7 receptor (using human cloned receptors in HEK 293 and [3H]5-CT as a radioligand ); format: cell-based, HEK293
[8] = target: 5-hydroxytryptamine receptor 2B (Homo sapiens, UniProt P41595); assay: Compound was tested for its binding affinity for human cloned 5-hydroxytryptamine 2B receptor in HEK 293 using [3H]ketanserin as a radioligand; format: cell-based, HEK293
Sequence of 5-hydroxytryptamine receptor 2B (P41595 whole entry): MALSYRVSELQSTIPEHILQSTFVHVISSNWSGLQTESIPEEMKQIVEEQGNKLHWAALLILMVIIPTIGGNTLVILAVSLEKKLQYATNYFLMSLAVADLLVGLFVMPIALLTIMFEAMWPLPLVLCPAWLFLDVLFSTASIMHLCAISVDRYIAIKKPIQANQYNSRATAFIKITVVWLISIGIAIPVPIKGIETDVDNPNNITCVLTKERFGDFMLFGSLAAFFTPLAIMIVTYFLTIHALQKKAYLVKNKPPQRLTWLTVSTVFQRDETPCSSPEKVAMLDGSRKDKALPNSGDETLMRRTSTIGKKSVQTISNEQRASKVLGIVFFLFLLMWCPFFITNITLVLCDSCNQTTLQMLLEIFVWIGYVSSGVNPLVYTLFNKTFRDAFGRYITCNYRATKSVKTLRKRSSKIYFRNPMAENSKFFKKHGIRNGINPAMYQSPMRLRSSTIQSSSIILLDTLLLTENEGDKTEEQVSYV

[9] = target: 5-hydroxytryptamine receptor 6 (Homo sapiens, UniProt P50406); assay: Compound was tested for its binding affinity in 5-hydroxytryptamine 6 receptor (using human cloned receptors in HeLa and [3H]LSD as a radioligand )
Sequence of 5-hydroxytryptamine receptor 6 (P50406 whole entry): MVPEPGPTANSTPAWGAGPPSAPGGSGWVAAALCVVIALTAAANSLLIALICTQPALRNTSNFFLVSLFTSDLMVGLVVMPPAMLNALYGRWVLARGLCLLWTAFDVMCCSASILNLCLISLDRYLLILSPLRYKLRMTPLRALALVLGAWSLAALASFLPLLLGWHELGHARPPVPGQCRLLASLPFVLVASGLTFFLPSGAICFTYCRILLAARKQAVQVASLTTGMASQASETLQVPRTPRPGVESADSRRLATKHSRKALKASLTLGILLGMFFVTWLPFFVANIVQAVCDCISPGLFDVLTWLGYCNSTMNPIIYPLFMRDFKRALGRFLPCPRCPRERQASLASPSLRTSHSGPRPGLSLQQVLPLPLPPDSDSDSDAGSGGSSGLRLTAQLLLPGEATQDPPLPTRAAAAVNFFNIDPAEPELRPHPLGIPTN

[10] = target: 5-hydroxytryptamine receptor 1B (Homo sapiens, UniProt P28222); assay: Compound was tested for its binding affinity for human cloned 5-hydroxytryptamine 1B receptor in CHO using [3H]5-HT as a radioligand
Sequence of 5-hydroxytryptamine receptor 1B (P28222 whole entry): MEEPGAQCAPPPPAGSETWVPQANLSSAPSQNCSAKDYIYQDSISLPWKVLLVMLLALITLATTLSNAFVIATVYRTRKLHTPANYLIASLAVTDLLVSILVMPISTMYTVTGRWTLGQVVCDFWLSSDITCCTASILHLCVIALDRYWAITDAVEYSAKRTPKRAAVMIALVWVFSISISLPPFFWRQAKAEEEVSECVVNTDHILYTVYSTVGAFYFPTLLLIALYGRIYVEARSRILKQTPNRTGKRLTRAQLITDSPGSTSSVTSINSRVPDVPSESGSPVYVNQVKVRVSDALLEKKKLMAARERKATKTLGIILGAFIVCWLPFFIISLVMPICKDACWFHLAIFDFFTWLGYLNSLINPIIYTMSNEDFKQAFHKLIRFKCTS

[11] = target: 5-hydroxytryptamine receptor 4 (Homo sapiens, UniProt Q13639); assay: Compound was tested for its binding affinity for 5-hydroxytryptamine 4 receptor
Sequence of 5-hydroxytryptamine receptor 4 (Q13639 whole entry): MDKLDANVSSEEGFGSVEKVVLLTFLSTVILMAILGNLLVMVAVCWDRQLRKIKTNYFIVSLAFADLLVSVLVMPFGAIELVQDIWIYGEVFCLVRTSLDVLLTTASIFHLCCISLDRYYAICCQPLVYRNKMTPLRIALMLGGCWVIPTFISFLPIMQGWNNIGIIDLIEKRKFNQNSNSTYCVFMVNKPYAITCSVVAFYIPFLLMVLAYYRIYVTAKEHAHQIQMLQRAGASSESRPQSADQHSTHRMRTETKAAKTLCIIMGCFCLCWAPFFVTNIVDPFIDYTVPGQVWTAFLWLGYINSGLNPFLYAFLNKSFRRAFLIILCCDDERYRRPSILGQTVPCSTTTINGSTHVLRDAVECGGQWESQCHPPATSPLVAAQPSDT

[12] = target: 5-hydroxytryptamine receptor 1D (Homo sapiens, UniProt P28221); assay: Compound was tested for its binding affinity for human cloned 5-hydroxytryptamine 1D receptor in CHO using [3H]5-HT as a radioligand
Sequence of 5-hydroxytryptamine receptor 1D (P28221 whole entry): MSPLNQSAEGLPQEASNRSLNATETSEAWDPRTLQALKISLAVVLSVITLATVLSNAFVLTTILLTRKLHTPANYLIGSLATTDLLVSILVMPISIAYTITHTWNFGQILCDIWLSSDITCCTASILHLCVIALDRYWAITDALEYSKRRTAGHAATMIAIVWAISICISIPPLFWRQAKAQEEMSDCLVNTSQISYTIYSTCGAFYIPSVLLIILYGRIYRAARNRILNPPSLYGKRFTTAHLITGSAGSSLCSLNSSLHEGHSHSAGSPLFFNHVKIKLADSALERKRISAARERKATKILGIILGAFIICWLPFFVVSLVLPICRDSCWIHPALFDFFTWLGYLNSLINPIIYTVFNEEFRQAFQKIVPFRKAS

[13] = target: T3, 5-hydroxytryptamine receptor 1A (Homo sapiens, UniProt P08908); assay: Compound was tested for its binding affinity for human cloned 5-hydroxytryptamine 1A receptor in HEK 293 using [3H]5-CT as a radioligand; format: cell-based, HEK293
T3 sequence (P08908 whole entry): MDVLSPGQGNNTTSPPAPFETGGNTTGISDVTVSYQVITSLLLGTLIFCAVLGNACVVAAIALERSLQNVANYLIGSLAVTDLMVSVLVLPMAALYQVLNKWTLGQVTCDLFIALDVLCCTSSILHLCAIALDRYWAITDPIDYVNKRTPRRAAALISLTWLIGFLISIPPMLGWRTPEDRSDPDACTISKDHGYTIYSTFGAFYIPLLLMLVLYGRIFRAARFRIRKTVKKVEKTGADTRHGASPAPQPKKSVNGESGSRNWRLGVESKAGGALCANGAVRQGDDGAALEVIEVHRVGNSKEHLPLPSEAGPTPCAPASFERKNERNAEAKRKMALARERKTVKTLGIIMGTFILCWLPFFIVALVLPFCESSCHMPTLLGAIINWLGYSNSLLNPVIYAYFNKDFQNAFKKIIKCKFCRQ

[14] = target: T4, 5-hydroxytryptamine receptor 2C (Homo sapiens, UniProt P28335); assay: Compound was tested for its binding affinity for human cloned 5-hydroxytryptamine 2C receptor in HEK 293 using [3H]mesulergine as a radioligand; format: cell-based, HEK293
T4 sequence (P28335 whole entry): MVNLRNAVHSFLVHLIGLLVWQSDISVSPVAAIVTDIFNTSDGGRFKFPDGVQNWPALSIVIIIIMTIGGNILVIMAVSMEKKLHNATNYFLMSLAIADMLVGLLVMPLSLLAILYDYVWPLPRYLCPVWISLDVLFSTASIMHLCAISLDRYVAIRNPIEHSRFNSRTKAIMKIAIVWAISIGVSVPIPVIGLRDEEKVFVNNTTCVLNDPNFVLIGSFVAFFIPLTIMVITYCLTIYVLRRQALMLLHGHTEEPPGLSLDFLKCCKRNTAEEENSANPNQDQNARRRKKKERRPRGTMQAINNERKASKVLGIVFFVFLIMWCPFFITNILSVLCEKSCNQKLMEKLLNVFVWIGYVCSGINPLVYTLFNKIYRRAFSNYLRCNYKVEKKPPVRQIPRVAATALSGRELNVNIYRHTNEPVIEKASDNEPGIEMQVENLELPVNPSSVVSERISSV

[15] = target: 5-hydroxytryptamine receptor 1E (Homo sapiens, UniProt P28566); assay: Compound was tested for its binding affinity for human cloned 5-hydroxytryptamine 1E receptor in CHO using [3H]5-HT as a radioligand
Sequence of 5-hydroxytryptamine receptor 1E (P28566 whole entry): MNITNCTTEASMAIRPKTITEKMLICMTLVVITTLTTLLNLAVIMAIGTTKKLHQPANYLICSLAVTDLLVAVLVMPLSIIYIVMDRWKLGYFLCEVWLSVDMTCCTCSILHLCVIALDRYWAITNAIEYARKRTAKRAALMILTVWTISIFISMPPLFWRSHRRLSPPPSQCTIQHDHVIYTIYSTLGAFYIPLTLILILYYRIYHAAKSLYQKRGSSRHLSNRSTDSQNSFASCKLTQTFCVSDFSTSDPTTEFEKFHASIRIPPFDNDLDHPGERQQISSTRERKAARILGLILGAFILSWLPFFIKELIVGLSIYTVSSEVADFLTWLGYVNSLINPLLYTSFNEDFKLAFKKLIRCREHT

[16] = target: 5-hydroxytryptamine receptor 2A (Homo sapiens, UniProt P28223); assay: Compound was tested for its binding affinity for human cloned 5-hydroxytryptamine 2A receptor in HEK 293 using [3H]ketanserin as a radioligand; format: cell-based, HEK293
Sequence of 5-hydroxytryptamine receptor 2A (P28223 whole entry): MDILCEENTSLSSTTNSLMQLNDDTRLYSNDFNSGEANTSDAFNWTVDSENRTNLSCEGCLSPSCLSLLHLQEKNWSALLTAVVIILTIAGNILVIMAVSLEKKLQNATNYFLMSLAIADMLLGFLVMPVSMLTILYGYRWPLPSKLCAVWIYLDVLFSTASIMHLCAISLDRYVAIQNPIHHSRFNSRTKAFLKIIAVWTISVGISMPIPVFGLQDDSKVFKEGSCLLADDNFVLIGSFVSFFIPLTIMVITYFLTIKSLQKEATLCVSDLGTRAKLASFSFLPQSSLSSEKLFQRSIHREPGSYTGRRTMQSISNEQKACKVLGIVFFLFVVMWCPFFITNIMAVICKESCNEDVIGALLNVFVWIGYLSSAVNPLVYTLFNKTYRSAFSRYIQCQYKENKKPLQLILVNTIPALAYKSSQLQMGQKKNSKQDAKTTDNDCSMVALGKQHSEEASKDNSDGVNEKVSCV

[17] = target: T5, 5-hydroxytryptamine receptor 1F (Homo sapiens, UniProt P30939); assay: Compound was tested for its binding affinity for human cloned 5-hydroxytryptamine 1F receptor in CHO using [3H]5-HT as a radioligand
T5 sequence (P30939 whole entry): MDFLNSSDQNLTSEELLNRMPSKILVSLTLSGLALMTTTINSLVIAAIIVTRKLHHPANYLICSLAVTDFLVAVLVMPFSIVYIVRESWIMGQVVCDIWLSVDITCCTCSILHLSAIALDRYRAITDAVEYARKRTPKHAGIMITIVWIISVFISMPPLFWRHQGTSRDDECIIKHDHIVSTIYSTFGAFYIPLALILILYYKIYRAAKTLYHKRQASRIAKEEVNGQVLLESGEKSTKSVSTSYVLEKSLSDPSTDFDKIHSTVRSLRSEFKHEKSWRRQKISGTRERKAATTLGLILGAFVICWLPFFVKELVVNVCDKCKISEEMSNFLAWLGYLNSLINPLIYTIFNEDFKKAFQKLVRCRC

[18] = Oral bioavailability in rat; format: ADME, organism-based; conditions: in vivo
Cavia porcellus [19] = species on record: Cavia porcellus; assay: Effective dose to antagonise 5-CT induced hypothermia in guinea pig at 2 hours; format: functional
[20] = target: 5-hydroxytryptamine receptor 5A (Homo sapiens, UniProt P47898); assay: Compound was tested for its binding affinity in 5-hydroxytryptamine 5A receptor (using human cloned receptors in HEK 293 and [3H]5-CTas a radioligand ); format: cell-based, HEK293
Sequence of 5-hydroxytryptamine receptor 5A (P47898 whole entry): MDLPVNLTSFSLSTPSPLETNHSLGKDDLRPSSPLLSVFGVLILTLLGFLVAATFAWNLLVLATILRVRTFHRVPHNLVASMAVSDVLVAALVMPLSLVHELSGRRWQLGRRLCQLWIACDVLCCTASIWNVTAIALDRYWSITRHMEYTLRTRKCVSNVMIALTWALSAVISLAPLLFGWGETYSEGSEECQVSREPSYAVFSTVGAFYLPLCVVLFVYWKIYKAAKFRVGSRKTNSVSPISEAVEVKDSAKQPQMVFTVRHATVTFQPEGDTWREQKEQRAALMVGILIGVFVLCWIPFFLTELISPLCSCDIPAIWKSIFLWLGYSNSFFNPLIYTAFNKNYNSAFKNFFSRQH

| Compound | Ki [1] [nM] | Ki [2] [nM] | other results |
| --- | --- | --- | --- |
| CC1CCN(CC[C@H]2CCCN2S(=O)(=O)c2ccc3cc[nH]c3c2)CC1 | > 10000 | 2.4 |  |
| CC1CCN(CC[C@H]2CCCN2S(=O)(=O)c2ccc3[nH]c(O)nc3c2)CC1 |  | 57.5 |  |
| O=S(=O)(c1ccc2cc[nH]c2c1)N1CCC[C@@H]1CCN1CCC(c2cc3ccccc3[nH]2)CC1 | 89.1 | 6.31 |  |
| CC1CCN(CC[C@H]2CCCN2S(=O)(=O)c2cccc(O)c2)CC1.Cl |  |  | clearance [3]: 140 mL/min/kg; half-life [4]: < 0.5 h; ED50 (Cavia porcellus [5]): 3 mg/kg; Kp [6]: 0.8 |
| CC1CCN(CC[C@H]2CCCN2S(=O)(=O)c2ccc3c(c2)NCC3)CC1 |  | 22.9 |  |
| CC1CCN(CC[C@H]2CCCN2S(=O)(=O)c2ccc3c[nH]nc3c2)CC1 |  | 6.46 |  |
| O=S(=O)(c1ccc2cc[nH]c2c1)N1CCC[C@@H]1CCN1CCC(Oc2ccc(Cl)cc2)CC1 |  |  | Ki [7]: 2 nM; Ki [8]: 91.2 nM; clearance [3]: 57 mL/min/kg; Ki [9]: 851 nM; half-life [4]: 2 h; Ki [10]: 631 nM; Ki [11]: 1910 nM; Ki [12]: 25.1 nM; Ki [13]: 562 nM; Ki [14]: 269 nM; Ki [15]: > 5010 nM; Ki [16]: 63.1 nM; Ki [17]: > 2000 nM; bioavailability [18]: 16%; Kp [6]: 0.9; ED50 (Cavia porcellus [19]): 2 mg/kg; Ki [20]: 182 nM |
| CC1CCN(CC[C@H]2CCCN2S(=O)(=O)c2ccc3[nH]cnc3c2)CC1 |  | 6.46 |  |
| CC1CCN(CC[C@H]2CCCN2S(=O)(=O)c2ccc3oc(O)nc3c2)CC1 |  | 166 |  |
| CC1CCN(CC[C@H]2CCCN2S(=O)(=O)c2ccc3[nH]nnc3c2)CC1 |  | 25.7 |  |

The next lines start with results.

| Ki [1] [nM] | Ki [2] [nM] | Compound | other results |
| --- | --- | --- | --- |
| 1.29 | 0.676 | O=S(=O)(c1ccc2cc[nH]c2c1)N1CCC[C@@H]1CCN1CCC(c2c[nH]c3ccccc23)CC1 |  |
| 19.1 | 0.832 | O=C(c1ccc(F)cc1)C1CCN(CC[C@H]2CCCN2S(=O)(=O)c2ccc3cc[nH]c3c2)CC1 |  |
| 30.2 | 0.501 | O=S(=O)(c1ccc2cc[nH]c2c1)N1CCC[C@@H]1CCN1CCC(Oc2ccc(F)cc2)CC1 |  |
| 93.3 | 0.794 | O=C(c1ccc(Cl)cc1)C1CCN(CC[C@H]2CCCN2S(=O)(=O)c2ccc3cc[nH]c3c2)CC1 |  |
| 43.7 | 0.708 | O=S(=O)(c1ccc2cc[nH]c2c1)N1CCC[C@@H]1CCN1CCC(n2c(O)nc3ccccc32)CC1 |  |
| 309 | 1.82 | O=c1oc2ccccc2n1C1CCN(CC[C@H]2CCCN2S(=O)(=O)c2ccc3cc[nH]c3c2)CC1 |  |
